The text below walks through data of patent publication US20080004253A1, “Thiazolopyrimidine modulators of TRPV1” (priority 2006, published 2008).

One assay has as its target T1, rat TRPV1 (Rattus norvegicus, UniProt O35433).
T1 construct: expressed in transfected cells; host or cells: HEK293 (rTRPV1/HEK293), geneticin selection
In words: Functional assay: block of capsaicin-induced Ca2+ influx, rat assay (rTRPV1/HEK293, FLIPR). It is filed as cell-based. As to conditions: rTRPV1/HEK293 cells, capsaicin challenge, Fluo-3 fluorescence; mean; > value = solubility limit in assay medium. How it is done: (§1) Functional assay: block of capsaicin-induced Ca^2+ influx
(§2) HEK293 cells were transfected with human TRPV1 cloned in pcDNA3.1zeo(+) using the Effectene non-liposomal lipid based transfection kit (Qiagen) (hTRPV1/HEK293). hTRPV1/HEK293 cells were routinely grown as monolayers under selection in zeocin (200 μg/mL; Invitrogen) in Dulbecco's Modified Eagle Medium (DMEM, Gibco BRL) supplemented with 10% fetal bovine serum, and penicillin/streptomycin (50 units/mL) in 5% CO2 at 37° C. Cells were passaged frequently, every 3-5 days, to avoid overgrowth, depletion of essential medium components, or acidic medium exposure. Cells were passaged using a brief wash in 0.05% trypsin with 1 mM EDTA, followed by dissociation in divalent-free phosphate-buffered saline (Hyclone #SH30028.02). […] The assay buffer was composed of 130 mM NaCl, 2 mM KCl, 2 mM MgCl2, 10 mM HEPES, 5 mM glucose, and either 2 mM or 20 μM CaCl2. On the day of the experiment, the culture medium was replaced with 2 mM calcium assay buffer using an automated plate washer (ELx405; Biotek, VT). […] After loading the cells, the dye solution was replaced with 50 μL/well of 20 μM calcium assay buffer using the ELx405 plate washer. Test compounds (50 μL/well) were added to the plate and incubated for 30 min. […] The IC50 values were determined. […] The contents of the wells were mixed 3 times (40 μL mix volume) immediately after the additions were made. Concentration-dependence of block was determined by exposing each well of cells in duplicate rows of a 96-well plate to a serial dilution of test compound. The concentration series usually started at 10 μM with a three-fold serial decrement in concentration. The magnitude of the capsaicin response was determined by measuring the change in fluo3 fluorescence before and 100 seconds after the addition of the agonist. Data were analyzed using a non-linear regression program (Origin; OriginLab, MA).
This assay was performed similarly to the human assay described above, but using HEK293 cells transfected with rat TRPV1 (rTRPV1/HEK293).
(§3) IC50 values shown are the average (mean) of the results obtained. […] Compounds were tested in either the free base or trifluoroacetic acid salt form.

The target in a further assay is T2, human TRPV1 (Homo sapiens, UniProt Q8NER1).
T2 construct: expressed in transfected cells; host or cells: HEK293 (hTRPV1/HEK293), zeocin selection
T2 sequence (Q8NER1 whole entry): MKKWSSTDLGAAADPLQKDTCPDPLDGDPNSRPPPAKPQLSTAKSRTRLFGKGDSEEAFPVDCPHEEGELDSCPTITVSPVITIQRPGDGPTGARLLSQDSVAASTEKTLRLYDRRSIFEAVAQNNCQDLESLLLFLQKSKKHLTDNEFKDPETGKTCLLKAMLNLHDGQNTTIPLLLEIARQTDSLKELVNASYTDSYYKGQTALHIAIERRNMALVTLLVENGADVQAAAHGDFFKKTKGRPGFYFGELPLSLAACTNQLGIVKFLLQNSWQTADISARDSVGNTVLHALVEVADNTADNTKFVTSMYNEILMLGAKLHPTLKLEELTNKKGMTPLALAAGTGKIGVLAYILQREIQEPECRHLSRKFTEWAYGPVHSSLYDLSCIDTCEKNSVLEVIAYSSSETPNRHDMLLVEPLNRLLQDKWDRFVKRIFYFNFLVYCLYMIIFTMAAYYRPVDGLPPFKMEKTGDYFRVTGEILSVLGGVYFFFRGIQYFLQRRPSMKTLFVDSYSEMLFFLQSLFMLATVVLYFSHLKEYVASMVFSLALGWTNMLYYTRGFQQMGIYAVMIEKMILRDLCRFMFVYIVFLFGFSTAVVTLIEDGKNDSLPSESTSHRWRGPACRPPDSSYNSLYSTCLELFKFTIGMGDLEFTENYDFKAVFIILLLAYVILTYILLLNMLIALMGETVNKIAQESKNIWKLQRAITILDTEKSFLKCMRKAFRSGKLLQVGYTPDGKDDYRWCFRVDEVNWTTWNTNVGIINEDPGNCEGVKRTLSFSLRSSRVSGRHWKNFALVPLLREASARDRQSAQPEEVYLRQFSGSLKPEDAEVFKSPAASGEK
Nature of the assay: Functional assay: block of capsaicin-induced Ca2+ influx, human assay (hTRPV1/HEK293, FLIPR). As to conditions: hTRPV1/HEK293 cells, 150 nM capsaicin challenge, Fluo-3 fluorescence; mean; > value = solubility limit in assay medium. The format is cell-based. How it is done: as §1, §2, §3

T1 sequence (O35433 whole entry): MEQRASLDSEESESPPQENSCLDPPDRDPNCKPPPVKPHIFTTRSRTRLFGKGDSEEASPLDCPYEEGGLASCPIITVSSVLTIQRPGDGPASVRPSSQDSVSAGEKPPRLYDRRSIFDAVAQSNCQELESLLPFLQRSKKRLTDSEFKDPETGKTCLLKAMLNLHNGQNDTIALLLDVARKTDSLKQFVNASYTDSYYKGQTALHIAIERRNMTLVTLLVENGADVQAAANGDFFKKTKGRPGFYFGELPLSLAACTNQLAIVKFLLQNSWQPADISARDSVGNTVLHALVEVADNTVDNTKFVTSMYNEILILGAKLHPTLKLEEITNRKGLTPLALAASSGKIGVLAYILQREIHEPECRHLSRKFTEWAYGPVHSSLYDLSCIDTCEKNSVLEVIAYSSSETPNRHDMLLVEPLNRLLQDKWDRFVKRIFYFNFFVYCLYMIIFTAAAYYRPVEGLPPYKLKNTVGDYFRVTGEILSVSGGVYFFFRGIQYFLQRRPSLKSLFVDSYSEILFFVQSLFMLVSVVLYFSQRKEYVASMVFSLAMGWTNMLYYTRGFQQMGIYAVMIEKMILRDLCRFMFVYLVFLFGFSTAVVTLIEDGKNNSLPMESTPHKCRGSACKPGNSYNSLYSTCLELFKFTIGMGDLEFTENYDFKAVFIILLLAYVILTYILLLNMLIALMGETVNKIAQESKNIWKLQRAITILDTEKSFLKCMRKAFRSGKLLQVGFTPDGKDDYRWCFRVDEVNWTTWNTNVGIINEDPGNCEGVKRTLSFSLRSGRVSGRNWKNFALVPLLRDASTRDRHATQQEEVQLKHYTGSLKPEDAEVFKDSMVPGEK

`Cc1cccc(C)c1Nc1nc2c(Nc3ccc(C(C)(C)C#N)cc3)ncnc2s1` [Example 32, 2-{4-[2-(2,6-Dimethyl-phenylamino)-thiazolo[5,4-d]pyrimidin-7-ylamino]-phenyl}-2-methyl-propionitrile]: the 50% inhibitory concentration (IC50) (usually the concentration at which inhibition is half-maximal) at rat TRPV1 stood at 8 nM; against human TRPV1, 51 nM.
Take `COc1ccc(Nc2ncnc3sc(Nc4c(C)cccc4C)nc23)cc1` [Example 33, N^2-(2,6-Dimethyl-phenyl)-N^7-(4-methoxy-phenyl)-thiazolo[5,4-d]pyrimidine-2,7-diamine]: the concentration for half-maximal inhibition (IC50) against rat TRPV1 was found to be 70 nM; at human TRPV1, 205 nM.
For the compound `Cc1cccc(C)c1Nc1nc2c(Nc3ccc(Cl)c(Cl)c3)ncnc2s1` [Example 34, N^7-(3,4-Dichloro-phenyl)-N^2-(2,6-dimethyl-phenyl)-thiazolo[5,4-d]pyrimidine-2,7-diamine], the concentration for half-maximal inhibition (IC50) against rat TRPV1 and against human TRPV1 was above 6670 nM throughout.
Consider `Cc1ccc(Nc2ncnc3sc(Nc4c(C)cccc4C)nc23)cc1` [Example 35, N^2-(2,6-Dimethyl-phenyl)-N^7-p-tolyl-thiazolo[5,4-d]pyrimidine-2,7-diamine], for which the values for the 50% inhibitory concentration (IC50) against rat TRPV1 and on human TRPV1 were 10 nM and 31 nM, respectively.
As to `Cc1cccc(C)c1Nc1nc2c(Nc3ccccc3C(F)(F)F)ncnc2s1` [Example 36, N^2-(2,6-Dimethyl-phenyl)-N^7-(2-trifluoromethyl-phenyl)-thiazolo[5,4-d]pyrimidine-2,7-diamine], the IC50 against rat TRPV1 and against human TRPV1 was above 6670 nM each time.
Consider `COC(=O)c1ccc(Nc2ncnc3sc(Nc4c(C)cccc4C)nc23)cc1` [Example 37, 4-[2-(2,6-Dimethyl-phenylamino)-thiazolo[5,4-d]pyrimidin-7-ylamino]-benzoic acid methyl ester], for which the IC50 was 38 nM against rat TRPV1 and 134 nM at human TRPV1.
Turning to `COc1cc(CNc2ncnc3sc(Nc4c(C)cccc4C)nc23)ccc1O` [Example 38, 4-{[2-(2,6-Dimethyl-phenylamino)-thiazolo[5,4-d]pyrimidin-7-ylamino]-methyl}-2-methoxy-phenol], the 50% inhibitory concentration (IC50) on rat TRPV1 is 7130 nM; against human TRPV1 it was above 20000 nM.
In the case of `Cc1cccc(C)c1Nc1nc2c(NCc3ccc(Cl)c(Cl)c3)ncnc2s1` [Example 39, N^7-(3,4-Dichloro-benzyl)-N^2-(2,6-dimethyl-phenyl)-thiazolo[5,4-d]pyrimidine-2,7-diamine], the concentration for half-maximal inhibition (IC50) on rat TRPV1 and against human TRPV1 was above 6670 nM throughout.
On to `Cc1cccc(C)c1Nc1nc2c(Nc3ccc(SC(F)(F)F)cc3)ncnc2s1` [Example 40, N^2-(2,6-Dimethyl-phenyl)-N^7-(4-trifluoromethylsulfanyl-phenyl)-thiazolo[5,4-d]pyrimidine-2,7-diamine], for which the IC50 against rat TRPV1 is 16 nM; at human TRPV1 it was 67 nM.
On the same counts, the results for `Cc1cccc(C)c1Nc1nc2c(NC3Cc4ccccc4C3)ncnc2s1` [Example 41, N^2-(2,6-Dimethyl-phenyl)-N^7-indan-2-yl-thiazolo[5,4-d]pyrimidine-2,7-diamine] are 2040 nM and above 6670 nM.
On to `Cc1cccc(C)c1Nc1nc2c(Nc3cccc(C(F)(F)F)c3)ncnc2s1` [Example 42, N^2-(2,6-Dimethyl-phenyl)-N^7-(3-trifluoromethyl-phenyl)-thiazolo[5,4-d]pyrimidine-2,7-diamine], for which the 50% inhibitory concentration (IC50) at rat TRPV1 was 236 nM; at human TRPV1, 4980 nM.
On the same counts, the results for `Cc1cccc(C)c1Nc1nc2c(NCc3ccccc3)ncnc2s1` [Example 43, N^7-Benzyl-N^2-(2,6-dimethyl-phenyl)-thiazolo[5,4-d]pyrimidine-2,7-diamine] are above 6670 nM and above 6670 nM.
As for `Cc1cccc(C)c1Nc1nc2c(Nc3ccc(S(N)(=O)=O)cc3)ncnc2s1` [Example 44, 4-[2-(2,6-Dimethyl-phenylamino)-thiazolo[5,4-d]pyrimidin-7-ylamino]-benzenesulfonamide], the IC50 stood at 3620 nM against rat TRPV1 and 14700 nM against human TRPV1.
As to `CCc1ccc(Nc2ncnc3sc(Nc4c(C)cccc4C)nc23)cc1` [Example 45, N^2-(2,6-Dimethyl-phenyl)-N^7-(4-ethyl-phenyl)-thiazolo[5,4-d]pyrimidine-2,7-diamine], the IC50 was determined as 37 nM on rat TRPV1 and 70 nM against human TRPV1.
On the same counts, the results for `Cc1cccc(C)c1Nc1nc2c(Nc3ccc(C(C)C)cc3)ncnc2s1` [Example 46, N^2-(2,6-Dimethyl-phenyl)-N^7-(4-isopropyl-phenyl)-thiazolo[5,4-d]pyrimidine-2,7-diamine] are 5 nM and 8 nM.
Regarding `Cc1ccc(CNc2ncnc3sc(Nc4c(C)cccc4C)nc23)o1` [Example 47, N^2-(2,6-Dimethyl-phenyl)-N^7-(5-methyl-furan-2-ylmethyl)-thiazolo[5,4-d]pyrimidine-2,7-diamine], the half-maximal inhibitory concentration (IC50) against rat TRPV1 and on human TRPV1 was above 6670 nM each time.
On to `COC(=O)c1scc(C)c1Nc1nc2c(Nc3ccc(C(F)(F)F)cc3)ncnc2s1` [Example 48, 4-Methyl-3-[7-(4-trifluoromethyl-phenylamino)-thiazolo[5,4-d]pyrimidin-2-ylamino]-thiophene-2-carboxylic acid methyl ester], for which the 50% inhibitory concentration (IC50) against rat TRPV1 stood at 202 nM; on human TRPV1, 207 nM.
Regarding `COC(=O)c1scc(C)c1Nc1nc2c(Nc3ccc(C(F)(F)F)nc3)ncnc2s1` [Example 49, 4-Methyl-3-[7-(6-trifluoromethyl-pyridin-3-ylamino)-thiazolo[5,4-d]pyrimidin-2-ylamino]-thiophene-2-carboxylic acid methyl ester], the concentration for half-maximal inhibition (IC50) came to 431 nM against rat TRPV1 and 375 nM at human TRPV1.
For the compound `Cc1noc(C)c1Nc1nc2c(Nc3ccc(C(F)(F)F)c(Cl)c3)ncnc2s1` [Example 50, N^7-(3-Chloro-4-trifluoromethyl-phenyl)-N^2-(3,5-dimethyl-isoxazol-4-yl)thiazolo[5,4d]pyrimidine-2,7-diamine], the IC50 at rat TRPV1 and against human TRPV1 was above 6670 nM throughout.
Take `Cc1noc(C)c1Nc1nc2c(Nc3ccc(C(C)(C)C)cc3)ncnc2s1` [Example 51, N^7-(4-tert-Butyl-phenyl)-N^2-(3,5-dimethyl-isoxazol-4-yl)-thiazolo[5,4-d]pyrimidine-2,7-diamine]: the values for the half-maximal inhibitory concentration (IC50) against rat TRPV1 and at human TRPV1 were 34 nM and 223 nM, respectively.
Turning to `CSc1nc(Nc2ccc(C(F)(F)F)cc2)c2nc(Nc3c(Cl)cccc3Cl)sc2n1` [Example 52, N^2-(2,6-Dichloro-phenyl)-5-methylsulfanyl-N^7-(4-trifluoromethyl-phenyl)-thiazolo[5,4-d]pyrimidine-2,7-diamine], the half-inhibitory concentration (IC50) was determined as 154 nM against rat TRPV1 and 226 nM against human TRPV1.
Turning to `CS(=O)(=O)c1nc(Nc2ccc(C(F)(F)F)cc2)c2nc(Nc3c(Cl)cccc3Cl)sc2n1` [Example 53, N^2-(2,6-Dichloro-phenyl)-5-methanesulfonyl-N^7-(4-trifluoromethyl-phenyl)-thiazolo[5,4-d]pyrimidine-2,7-diamine], the IC50 on rat TRPV1 amounted to 93 nM; against human TRPV1, 196 nM.
On to `FC(F)(F)c1ccc(Nc2nc(N3CCCCC3)nc3sc(Nc4c(Cl)cccc4Cl)nc23)cc1` [Example 54, N^2-(2,6-Dichloro-phenyl)-5-piperidin-1-yl-N^7-(4-trifluoromethyl-phenyl)-thiazolo[5,4-d]pyrimidine-2,7-diamine], for which the IC50 stood at 33 nM at rat TRPV1 and 63 nM on human TRPV1.
With `COc1nc(Nc2ccc(C(F)(F)F)cc2)c2nc(Nc3c(Cl)cccc3Cl)sc2n1` [Example 55, N^2-(2,6-Dichloro-phenyl)-5-methoxy-N^7-(4-trifluoromethyl-phenyl)-thiazolo[5,4d]pyrimidine-2,7-diamine], the IC50 on rat TRPV1 and on human TRPV1 was above 20000 nM throughout.
With `CN(C)c1nc(Nc2ccc(C(F)(F)F)cc2)c2nc(Nc3c(Cl)cccc3Cl)sc2n1` [Example 56, N^2-(2,6-Dichloro-phenyl)-N^5,N^5-dimethyl-N^7-(4-trifluoromethyl-phenyl)-thiazolo[5,4-d]pyrimidine-2,5,7-triamine], the IC50 came to 44 nM against rat TRPV1 and 32 nM against human TRPV1.
With `FC(F)(F)c1ccc(Nc2nc(N3CCCC3)nc3sc(Nc4c(Cl)cccc4Cl)nc23)cc1` [Example 58, N^2-(2,6-Dichloro-phenyl)-5-pyrrolidin-1-yl-N^7-(4-trifluoromethyl-phenyl)-thiazolo[5,4-d]pyrimidine-2,7-diamine], the IC50 on rat TRPV1 was 48 nM; against human TRPV1, 15 nM.
